Usually Cmax stands for the peak of the concentration-time curve.

The source of these data is publication PMC2391111 (British Journal of Cancer, 2008).

Entries after “also recorded” stand apart in the source; their conditions may differ. Read-outs that look alike come from different tables or passages of the source.

Series [1] in a line: Plasma pharmacokinetics of bortezomib and docetaxel given in combination. The class given is in vivo, patients. Conditions: human, plasma, intravenous; for AUC(0-t): read-out: AUC0–t, mean (%CV); for AUC(0-inf): read-out: AUC0–∞∞, mean (%CV); for clearance: read-out: CL, mean (%CV) (converted); for Cmax: read-out: Cmax, mean (%CV).
Source text: (§1) In patients participating in pharmacokinetic analysis, blood samples were taken on day 1, cycle 1, to determine the plasma concentration time profile of docetaxel and bortezomib. Samples were collected immediately before docetaxel infusion and bortezomib injection and at prespecified intervals on day 1. Samples were also taken for bortezomib pharmacokinetic analysis on day 11 of cycle 1. Whole-blood samples were taken for pharmacodynamic analysis using 20S proteasome inhibition assay ([Lightcap et al, 2000]) immediately before and 1 h after bortezomib dosing on days 1 and 11 of cycles 1 and 2, and on days 2 and 12 of cycle 1, in a subset of patients participating in pharmacokinetic analysis.
Another series relates to metastatic breast cancer. Conditions: single agent, anthracycline-pretreated metastatic breast cancer ref Jones et al, 2005; cited from earlier work.
For another series, the target named is 20S proteasome (Homo sapiens, UniProt P28074). Kind of series: 20S proteasome inhibition assay in whole blood. The format is in vivo, patients. Conditions: whole blood.
The subject of series [2] is alpha-1 acid glycoprotein (AAG), albumin, and lipoproteins. Details: method as in Aventis Pharmaceuticals Inc, 2005. Conditions: in vitro ref Aventis Pharmaceuticals Inc, 2005; cited from earlier work.
[3] abbreviates: 75 mg, docetaxel 75 mg m^−2 (n=7), day 1, with bortezomib.
The mark [4] stands for this setting: 100 mg, docetaxel 100 mg m^−2 (n=6), day 1, with bortezomib.

Sequence of 20S proteasome (P28074 60-263): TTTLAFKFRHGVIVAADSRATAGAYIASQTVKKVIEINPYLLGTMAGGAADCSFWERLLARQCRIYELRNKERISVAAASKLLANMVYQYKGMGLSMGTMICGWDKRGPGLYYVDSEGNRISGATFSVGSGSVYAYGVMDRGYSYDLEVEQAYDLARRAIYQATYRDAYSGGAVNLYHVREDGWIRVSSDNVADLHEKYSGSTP
Source text for 20S proteasome: as §1

On to `CC(=O)O[C@@]12CO[C@@H]1C[C@H](O)[C@@]1(C)C(=O)[C@H](O)C3=C(C)[C@@H](OC(=O)[C@H](O)[C@@H](NC(=O)OC(C)(C)C)c4ccccc4)C[C@@](O)([C@@H](OC(=O)c4ccccc4)[C@H]21)C3(C)C` [Docetaxel], for which the AUC(0-t) in series [1] (setting [3]) came to 1.7 µg·h/mL; in series [1] (setting [4]), 2.55 µg·h/mL. The AUC(0-inf) in series [1] (setting [3]) was determined as 1.85 µg·h/mL; in series [1] (setting [4]), 2.73 µg·h/mL. Besides, the clearance in series [1] (setting [3]) was 1420 mL/min; in series [1] (setting [4]) it was 1160 mL/min. Moreover, the half-life in series [1] (75 mg, docetaxel 75 mg m^−2 (n=7), day 1, with bortezomib, read-out: T½,z, mean (%CV) (converted)) was 10.4 h; in series [1] (75 mg, docetaxel 75 mg m^−2, day 1, patients with measurable plasma concentrations at 24 h post-dose (n=3), read-out: T½,z 24-h, mean (converted)), 17.6 h; in series [1] (100 mg, docetaxel 100 mg m^−2 (n=6), day 1, with bortezomib, read-out: T½,z, mean (%CV) (converted)), 15 h; in series [1] (100 mg, docetaxel 100 mg m^−2, day 1, patients with measurable plasma concentrations at 24 h post-dose (n=5), read-out: T½,z 24-h, mean (converted)), 17.4 h. The Vd in series [1] (75 mg, docetaxel 75 mg m^−2 (n=7), day 1, with bortezomib, read-out: Vss, mean (%CV)) was determined as 180 L; in series [1] (75 mg, docetaxel 75 mg m^−2 (n=7), day 1, with bortezomib, read-out: Vz, mean (%CV)) it was 920 L; in series [1] (100 mg, docetaxel 100 mg m^−2 (n=6), day 1, with bortezomib, read-out: Vss, mean (%CV)), 372 L; in series [1] (100 mg, docetaxel 100 mg m^−2 (n=6), day 1, with bortezomib, read-out: Vz, mean (%CV)), 1510 L. In addition, the Cmax in series [1] (docetaxel 75 mg m^−2 (n=7), day 1, with bortezomib) is 1.62 µg/mL; in series [1] (docetaxel 100 mg m^−2 (n=6), day 1, with bortezomib), 2.52 µg/mL. Besides, the “Median TTP” value with metastatic breast cancer was 5.7 months. Further, the Response rate with metastatic breast cancer is 32%. Further, the “Effect of coadministered docetaxel on 20S proteasome inhibition by bortezomib” value on 20S proteasome is on record as “appeared not to affect; also recorded: did not appear to affect”. The Plasma protein binding entry in series [2] was “extensively plasma protein-bound”.

For the compound `CC(=O)O[C@H]1C(=O)[C@@]2(C)[C@H]([C@H](OC(=O)c3ccccc3)[C@]3(O)C[C@H](OC(=O)[C@H](O)[C@@H](NC(=O)c4ccccc4)c4ccccc4)C(C)=C1C3(C)C)[C@]1(OC(C)=O)CO[C@@H]1C[C@@H]2O` [paclitaxel], in the series with metastatic breast cancer, the “Median TTP” value was 3.6 months and the Response rate is listed as 25%.
